Laboratory results from publication PMC6297231 (Nature Communications, 2018).

Columns and labels:
KMS12BM = experiment: Cell viability assay; format: cell-based; settings: Homo sapiens, KMS-12-BM, 24 h; KMS12BM (MM); read-out: AZD5991 24h GI50
EJM = experiment: Cell viability assay; format: cell-based; settings: Homo sapiens, 24 h; EJM (MM); read-out: AZD5991 24h GI50
Method: Cells were plated at 3000 cells/well in 384-well white plates in corresponding cell growth media. […] Caspase-3/7 activation was subsequently determined using a Caspase-Glo 3/7 Reagent (Promega) and viability was assayed using the CellTiter-Glo Reagent (Promega) as described in manufacturer’s instructions. Dose–response curves for caspase-3/7 activation and viability were plotted and analyzed (including EC50 and GI50 determination) using GraphPad Prism.

Compound `Cc1c2c(nn1C)CSCc1cc(n(C)n1)CSc1cc(c3ccccc3c1)OCCCc1c(C(=O)O)n(C)c3c-2c(Cl)ccc13` (atropisomer, axis not shown; (Ra)) [(Ra)-7] has a GI50 (KMS12BM) of 15 nM and a GI50 (EJM) of 105 nM.
